Experimental data published in US10219516B2, “Molecules having pesticidal utility, and intermediates, compositions, and processes, related thereto” (priority 2015, dated 2019).
Where two headings read alike, the source gives them in different places.

Legend:
[1] = test system: Cabbage Looper (Trichoplusia ni, TRIPNI); assay: Bioassay on Cabbage Looper (CL), 128-well diet tray assay; assay type: in vivo; conditions: Trichoplusia ni
Procedure, shortened: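 Second-instar larvae, one to five per well, placed on artificial diet treated with 50 μg/cm^2 test molecule in 90:10 acetone-water, dried before infestation. Held 5–7 days at 25° C, 14:10 light-dark; percent mortality averaged over eight wells.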

[2] = test system: Beet Armyworm (Spodoptera exigua, LAPHEG); assay: Bioassay on Beet Armyworm (BAW), 128-well diet tray assay; assay type: in vivo
Procedure, shortened: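 Diet tray, 8 wells/compound; 50 μg/cm^2 applied to diet surface (90:10 acetone-water), dried. 1–5 L2 larvae/well; 25° C., 14:10 L:D, 5–7 d. Read-out: % mortality, mean of 8 wells.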

[3] = Species CL (Cabbage Looper), read-out: CL (Biological Results, rating)
[4] = Species BAW (Beet Armyworm), read-out: BAW (Biological Results, rating)
[5] = Cabbage Looper, 128-well diet tray assay, read-out: CL rating
[6] = Beet Armyworm, 128-well diet tray assay, read-out: BAW rating

| SMILES | pest or weed control at 50 µg/cm2 [1, 3] [%] | pest or weed control at 50 µg/cm2 [2, 4] [%] | pest or weed control at 50 µg/cm2 [1, 5] [%] | pest or weed control at 50 µg/cm2 [2, 6] [%] |
| --- | --- | --- | --- | --- |
| CSc1ccc(NC(=O)c2cc(NC(=O)[C@H]3[C@H](c4cc(Cl)cc(Cl)c4)C3(Cl)Cl)ccc2Cl)cc1 (relative stereo) [F149, trans-2-Chloro-5-(2,2-dichloro-3-(3,5-dichlorophenyl)cyclopropane-1-carboxamido)-N-(4-(methylthio)phenyl)benzamide] | 50 to 100 | 50 to 100 | – | – |
| CS(=O)(=O)c1ccc(NC(=O)[C@H]2[C@H](c3cc(Cl)cc(Cl)c3)C2(Cl)Cl)cc1C(=O)Nc1ccc(F)cc1 (relative stereo) [F157, trans-5-(2,2-dichloro-3-(3,5-dichlorophenyl)cyclopropane-1-carboxamido)-N-(4-fluorophenyl)-2-(methylsulfonyl)benzamide] | 50 to 100 | 50 to 100 | – | – |
| C[S+]([O-])c1ccc(NC(=O)[C@H]2[C@H](c3cc(Cl)cc(Cl)c3)C2(Cl)Cl)cc1C(=O)Nc1ccc(F)cc1 (relative stereo) [F158, trans-5-(2,2-dichloro-3-(3,5-dichlorophenyl)cyclopropane-1-carboxamido)-N-(4-fluorophenyl)-2-(methylsulfinyl)benzamide] | 50 to 100 | 50 to 100 | – | – |
| C[S+]([O-])c1ccc(NC(=O)c2cc(NC(=O)[C@H]3[C@H](c4cc(Cl)cc(Cl)c4)C3(Cl)Cl)ccc2Cl)cc1 (relative stereo) [F159, trans-2-Chloro-5-(2,2-dichloro-3-(3,5-dichlorophenyl)cyclopropane-1-carboxamido)-N-(4-(methylsulfinyl)phenyl)benzamide] | 50 to 100 | 50 to 100 | – | – |
| O=C(Nc1c(F)cccc1F)c1cc(NC(=O)[C@H]2[C@H](c3cc(F)cc(Cl)c3)C2(Cl)Cl)ccc1Cl (relative stereo) [F160, trans-2-Chloro-5-(2,2-dichloro-3-(3-chloro-5-fluorophenyl)cyclopropane-1-carboxamido)-N-(2,6-difluorophenyl)benzamide] | 50 to 100 | 50 to 100 | – | – |
| COc1c(Cl)cc([C@H]2[C@H](C(=O)Nc3ccc(Cl)c(C(=O)Nc4ccc(NC(C)=O)cc4)c3)C2(Cl)Cl)cc1Cl (relative stereo) [F181, trans-N-(4-Acetamidophenyl)-2-chloro-5-(2,2-dichloro-3-(3,5-dichloro-4-methoxyphenyl)cyclopropane-1-carboxamido)benzamide] | 50 to 100 | 50 to 100 | – | – |
| CNc1ccc(NC(=O)c2cc(NC(=O)[C@H]3[C@H](c4cc(Cl)c(OC)c(Cl)c4)C3(Cl)Cl)ccc2Cl)cc1 (relative stereo) [F182, trans-2-Chloro-5-(2,2-dichloro-3-(3,5-dichloro-4-methoxyphenyl)cyclopropane-1-carboxamido)-N-(4-(methylamino)phenyl)benzamide] | 50 to 100 | 50 to 100 | – | – |
| CN(C(=O)[C@H]1[C@H](c2cc(Cl)cc(Cl)c2)C1(Cl)Cl)c1ccc(Cl)c(C(=O)Nc2ccc(F)cc2)c1 (relative stereo) [F183, trans-2-Chloro-5-(2,2-dichloro-3-(3,5-dichlorophenyl)-N-methylcyclopropane-1-carboxamido)-N-(4-fluorophenyl)benzamide] | 50 to 100 | 50 to 100 | – | – |
| N#Cc1cc(F)ccc1NC(=O)c1cc(NC(=O)[C@H]2[C@H](c3cc(Cl)c(Cl)c(Cl)c3)C2(Cl)Cl)ccc1Cl (relative stereo) [F191, trans-2-Chloro-N-(2-cyano-4-fluorophenyl)-5-(2,2-dichloro-3-(3,4,5-trichlorophenyl)cyclopropane-1-carboxamido)benzamide] | 50 to 100 | 50 to 100 | – | – |
| N#Cc1cc(F)ccc1NC(=O)c1cc(NC(=O)[C@H]2[C@H](c3ccc(F)c(Cl)c3)C2(Cl)Cl)ccc1Cl (relative stereo) [F192, trans-2-Chloro-N-(2-cyano-4-fluorophenyl)-5-(2,2-dichloro-3-(3-chloro-4-fluorophenyl)cyclopropane-1-carboxamido)benzamide] | 50 to 100 | 50 to 100 | – | – |
| Cc1cc(N(C)C(=O)OC(C)(C)C)ccc1NC(=O)c1cc(NC(=O)[C@H]2[C@H](c3cc(Cl)cc(Cl)c3)C2(Cl)Cl)ccc1Cl (relative stereo) [F198, trans-tert-Butyl-(4-(2-chloro-5-(2,2-dichloro-3-(3,5-dichlorophenyl)cyclopropane-1-carboxamido)benzamido)-3-methylphenyl)(methyl)carbamate] | 50 to 100 | 50 to 100 | – | – |
| CNc1cc(NC(=O)c2cc(NC(=O)[C@H]3[C@H](c4cc(Cl)cc(Cl)c4)C3(Cl)Cl)ccc2Cl)ccc1C (relative stereo) [F207, trans-2-Chloro-5-(2,2-dichloro-3-(3,5-dichlorophenyl)cyclopropane-1-carboxamido)-N-(4-methyl-3-(methylamino)phenyl)benzamide] | 50 to 100 | 50 to 100 | – | – |
| Cc1cc(N(C)C(=O)OC(C)(C)C)ccc1NC(=O)c1cc(NC(=O)[C@H]2[C@H](c3cc(Cl)c(Cl)c(Cl)c3)C2(Cl)Cl)ccc1Cl (relative stereo) [F218, trans-tert-Butyl-(4-(2-chloro-5-(2,2-dichloro-3-(3,4,5-trichlorophenyl)cyclopropane-1-carboxamido)benzamido)-3-methylphenyl)(methyl)carbamate] | 50 to 100 | 50 to 100 | – | – |
| Cc1cc(N(C)C(=O)OC(C)(C)C)ccc1N(C)C(=O)c1cc(NC(=O)[C@H]2[C@H](c3cc(Cl)cc(Cl)c3)C2(Cl)Cl)ccc1Cl (relative stereo) [F220, trans-tert-Butyl-(4-(2-chloro-5-(2,2-dichloro-3-(3,5-dichlorophenyl)cyclopropane-1-carboxamido)-N-methylbenzamido)-3-methylphenyl)(methyl)carbamate] | 50 to 100 | 50 to 100 | – | – |
| CNc1ccc(N(C)C(=O)c2cc(NC(=O)[C@H]3[C@H](c4cc(Cl)cc(Cl)c4)C3(Cl)Cl)ccc2Cl)c(C)c1 (relative stereo) [F225, trans-2-Chloro-5-(2,2-dichloro-3-(3,5-dichlorophenyl)cyclopropane-1-carboxamido)-N-methyl-N-(2-methyl-4-(methylamino)phenyl)benzamide] | 50 to 100 | 50 to 100 | – | – |
| CC(=O)Nc1ccc(NC(=O)c2cc(NC(=O)[C@H]3[C@H](c4cc(Cl)cc(Cl)c4)C3(Cl)Cl)c(Cl)cc2Cl)cc1 (relative stereo) [F255, trans-N-(4-Acetamidophenyl)-2,4-dichloro-5-(2,2-dichloro-3-(3,5-dichlorophenyl)cyclopropane-1-carboxamido)benzamide] | 0 to 50 | 50 to 100 | – | – |
| N#Cc1ccc(NC(=O)c2cc(NC(=O)[C@H]3[C@H](c4cc(Cl)cc(Cl)c4)C3(Cl)Cl)ccc2Cl)nc1N (relative stereo) [F292, N-(6-Amino-5-cyanopyridin-2-yl)-2-chloro-5-(trans-2,2-dichloro-3-(3,5-dichlorophenyl)cyclopropane-1-carboxamido)benzamide] | 50 to 100 | 50 to 100 | – | – |
| O=C(Nc1ncncc1F)c1cc(NC(=O)[C@H]2[C@H](c3cc(Cl)cc(Cl)c3)C2(Cl)Cl)ccc1Cl (relative stereo) [F318, trans-2-Chloro-5-(2,2-dichloro-3-(3,5-dichlorophenyl)cyclopropane-1-carboxamido)-N-(5-fluoropyrimidin-4-yl)benzamide] | 50 to 100 | 50 to 100 | – | – |
| Cc1cc(NC(=O)OC(C)(C)C)ccc1NC(=O)c1cc(NC(=O)[C@H]2[C@H](c3cc(Cl)cc(Br)c3)C2(Cl)Cl)ccc1Cl (relative stereo) [F335, tert-Butyl (4-(5-(trans-3-(3-bromo-5-chlorophenyl)-2,2-dichlorocyclopropane-1-carboxamido)-2-chlorobenzamido)-3-methylphenyl)carbamate] | 50 to 100 | 50 to 100 | – | – |
| Cc1cc(N)ccc1NC(=O)c1cc(NC(=O)[C@H]2[C@H](c3ccc(Cl)c(Br)c3)C2(Cl)Cl)ccc1Cl (relative stereo) [F336, N-(4-Amino-2-methylphenyl)-5-(trans-3-(3-bromo-4-chlorophenyl)-2,2-dichlorocyclopropane-1-carboxamido)-2-chlorobenzamide] | 50 to 100 | 50 to 100 | – | – |
| Nc1c(F)ccc(NC(=O)c2cc(NC(=O)[C@H]3[C@H](c4ccc(Cl)c(Br)c4)C3(Cl)Cl)ccc2Cl)c1F (relative stereo) [F338, N-(3-Amino-2,4-difluorophenyl)-5-(trans-3-(3-bromo-4-chlorophenyl)-2,2-dichlorocyclopropane-1-carboxamido)-2-chlorobenzamide] | 50 to 100 | 50 to 100 | – | – |
| Nc1ccc([C@H]2[C@H](C(=O)Nc3ccc(Cl)c(C(=O)Nc4ccc(F)cc4)c3)C2(Cl)Cl)cc1 (relative stereo) [F425, 5-(trans-3-(4-aminophenyl)-2,2-dichlorocyclopropane-1-carboxamido)-2-chloro-N-(4-fluorophenyl)benzamide] | – | – | 50 to 100 | 50 to 100 |
| O=C(Nc1ccc2c(c1)C(=O)NC2=O)c1cc(NC(=O)[C@H]2[C@H](c3cc(Cl)cc(Cl)c3)C2(Cl)Cl)ccc1Cl (relative stereo) [F439, trans-2-Chloro-5-(2,2-dichloro-3-(3,5-dichlorophenyl)cyclopropane-1-carboxamido)-N-(1,3-dioxoisoindolin-5-yl)benzamide] | – | – | 50 to 100 | 50 to 100 |
